The values that follow come from PubChem BioAssay AID463074 (Broad Institute, 2010).

Values joined by “and” are separate entries in the source; they are usually repeats but may differ in a detail not shown here. Equal entries are not always repeated. Active and inactive are the calls of the source.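 Rule for the calls: active = AC50 no more than tenfold above the top dose tested, or full inhibition at every dose with a flat fit (cut at about 19 µM in these data); inconclusive = flat curve fit with inhibition between 30% and 70%, or poor fit; inactive = AC50 more than tenfold above the top dose tested.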 A value given as a limit tells only on which side of the number the result lay.

The assay relates to HMLE_sh_eGFP viability, CellTiter-Glo luminescence, 72 h. Nature of the assay: viability loss of HMLE_sh_eGFP cells – cell-based, luminescence, counter-screen for HMLE_sh_ECad selective toxicity project, dose response (AID 463074).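 Note: counterscreen control line to flag general toxicity for the HMLE_sh_ECad screen; potency for loss of viability as luminescence drops below DMSO wells.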
As a reminder, the AC50 is the concentration at which the activity in the assay is half-maximal. For `O=C(C1CCCN(S(=O)(=O)c2ccc([N+](=O)[O-])cc2)C1)N1CCCCC1` (stereo not given), the AC50 was > 19.5 µM (inactive).

`NC(=O)CC(NC(=O)c1ccc(Br)cc1)c1ccc(NCc2ccc(F)cc2)c([N+](=O)[O-])c1` (stereo not given): the AC50 is 4.61 µM.

Consider `O=c1[nH]c(CN2CC=C(c3ccccc3)CC2)nc2scc(-c3ccccc3)c12`, for which the AC50 is 5.19 µM.

`C=CCNCCCOc1ccc(Cl)cc1C(C)(C)C`: the AC50 was 14.9 µM.

For the compound `COc1ccc(CCNc2ccc(C(CC(N)=O)NC(=O)c3ccc(Br)cc3)cc2[N+](=O)[O-])cc1` (stereo not given), the AC50 is 11.7 µM.

As for `CCN(CC)S(=O)(=O)c1ccc(NC(=O)Nc2cccc(C(F)(F)F)c2)cc1`, the concentration at half-maximal activity (AC50) is 3.54 µM.

For `Cc1ccc(-c2cc([C@H]3[C@@H]4C=CCC[C@@]4(C)C(=O)N3Cc3ccccc3)ccc2F)cc1`, the concentration at half-maximal activity (AC50) was 5.2 µM.

As to `CCNc1nc(NCC)n2c(SC(C(=O)Nc3cc(Cl)cc(Cl)c3)c3ccccc3)nnc2n1` (stereo not given), the concentration at half-maximal activity (AC50) was 3.52 µM.

Take `CC/C(=C(\c1ccccc1)c1ccc(OCCN(C)C)cc1)c1ccccc1`: the half-maximal activity concentration (AC50) is 6.69 µM and 6.32 µM.

As for `C=CCn1c(CNc2ccc(C)cc2)nnc1SCC(=O)N/N=C/c1ccc(O)cc1O`, the AC50 is 2.97 µM.

As to `O=c1c2ccccc2nc(/C=C/c2ccc(Br)cc2)n1CCO`, the AC50 was 16.6 µM.

`COc1ccc(N(CC(=O)Nc2cc(C)ccc2C)S(=O)(=O)c2c(C)noc2C)cc1`: the AC50 is > 19.5 µM (inactive).

For `O=C(CCN1Cc2ccccc2C1)c1ccc2c(c1)OCCO2`, the AC50 is 15.1 µM.

Turning to `CN1CCN(CCCNC(=O)c2ccc(/C=C3\Oc4ccccc4N(Cc4ccc(Cl)cc4)C3=O)cc2)CC1`, the concentration at half-maximal activity (AC50) was 3.31 µM.

On to `Cc1ccc(N2C(=O)NC(=O)/C(=C/C=C/c3ccco3)C2=O)cc1`, for which the AC50 was 3.29 µM.

`CNC(=O)c1cc(Oc2ccc(NC(=O)Nc3ccc(Cl)c(C(F)(F)F)c3)cc2)ccn1`: the AC50 was 2.39 µM.

As to `CC(C)=CCCC1(C)C=Cc2c(c(C)cc3c2[nH]c2cc(O)ccc23)O1` (stereo not given), the AC50 was 6.29 µM.

For the compound `O=C(Nc1ccc(O)cc1)c1ccc(NC(=O)c2cccs2)cc1`, the AC50 was 10 µM.

As for `Cn1c(=O)c(C(=O)NNC(=O)c2ccc(Br)cc2)c(O)c2ccccc21`, the concentration at half-maximal activity (AC50) was 5.69 µM.

On to `COC(=O)c1c(NC(=O)/C=C/c2ccc3c(c2)OCO3)sc(C)c1C`, for which the concentration at half-maximal activity (AC50) is 1.7 µM.

For `NC(=O)CC(NC(=O)Cc1cccc2ccccc12)c1ccc(NCc2ccccc2)c([N+](=O)[O-])c1` (stereo not given), the AC50 is 5.84 µM.

As for `COc1cc(OC)cc(-c2sc3ccc(OC)cc3c2-c2ccc3cc[nH]c3c2)c1`, the AC50 was 3.34 µM.

Take `Cn1c(-c2ccsc2)c(-c2cccs2)c2cc(Br)ccc21`: the AC50 was 5.92 µM.

As for `CC(C)=CCCC1(C)C=Cc2c(ccc3c2[nH]c2cc(O)c(C)cc23)O1` (stereo not given), the concentration at half-maximal activity (AC50) is 3.58 µM.

For the compound `CCCOc1c(Cl)cc(C(=O)Nc2ccc3c(c2)OCO3)cc1OCC`, the AC50 was 5.39 µM.

As to `Brc1ccc(/C=N/Nc2ccccc2)cc1`, the concentration at half-maximal activity (AC50) is 8.16 µM.

Regarding `CN(C)c1ccc(/C=C(\Cl)c2nc3ccccc3s2)cc1`, the AC50 was 2.85 µM.

On to `CN(Cc1cnc2nc(N)nc(N)c2n1)c1ccc(C(=O)N[C@@H](CCC(=O)O)C(=O)O)cc1`, for which the concentration at half-maximal activity (AC50) is under 0.16 µM.

Regarding `N=c1c2c(ncn1Cc1ccco1)Oc1c(ccc3ccccc13)C2c1ccccc1` (stereo not given), the AC50 was 3.92 µM.

As to `Cc1nn(Cc2ccc(Cl)c(Cl)c2)c(C)c1NC(=O)c1cc(-c2ccc3c(c2)OCO3)on1`, the AC50 was 1.56 µM.

`CCCCn1c(=O)c(C(=O)NCc2ccccc2)c(O)c2ccccc21`: the AC50 was 8.36 µM.

For `CSc1nc2sc3c(c2c(=O)n1CC(C)C)CC(C)(C)OC3`, the AC50 was under 0.16 µM.

As to `CCCCSc1nc(C)cc(SCC(=O)N/N=C/c2cccc(OC)c2O)n1`, the AC50 was 11.8 µM.

Turning to `COC(=O)C1C(=O)C2=C(CC1C)NC(=O)CC2c1cccc(C)c1` (stereo not given), the AC50 was > 19.5 µM (inactive).

`C=CCn1c(Sc2ncc([N+](=O)[O-])s2)n[nH]c1=O`: the concentration at half-maximal activity (AC50) was 3.59 µM.

For the compound `CCOc1ccc(NC(=O)Nc2ccc(Cc3ccncc3)cc2)cc1`, the AC50 is 7.84 µM.

For `CCCCCCSc1cccc(-c2nc3ccc(Cl)cn3c2NCc2ccccc2)c1`, the half-maximal activity concentration (AC50) is 3.12 µM.

Consider `CCCCc1ccc(N=N/C(C(=O)Nc2ccc(NC(C)=O)cc2OC)=C(/C)O)cc1`, for which the AC50 is 17.7 µM.

For the compound `O=c1oc2ccccc2c(O)c1Cc1cc(Cl)c2cccnc2c1O`, the concentration at half-maximal activity (AC50) is 4.9 µM.

On to `CCCC(=O)NC(c1ccco1)c1cc([N+](=O)[O-])c2cccnc2c1O` (stereo not given), for which the AC50 was 7.35 µM.

As to `S=c1[nH]nc(-c2cc(-c3ccccc3)n[nH]2)n1/N=C/C(Br)=C/c1ccccc1`, the AC50 is 1.2 µM.

With `Nc1c(C(=O)Nc2ccccc2)c2nc3ccccc3nc2n1CCCN1CCOCC1`, the half-maximal activity concentration (AC50) was 6.77 µM.

With `Cc1ccc(C)c(Cc2c(C)nc3c(C(=O)NCc4ccc5c(c4)OCO5)cnn3c2C)c1`, the AC50 was 19 µM.

As to `Cc1cccc(-c2cc3nc(C)cc(N4CC(C)CC(C)C4)n3n2)c1` (stereo not given), the AC50 was 6.87 µM.

Consider `CC(C)CC(=O)c1c(O)c(C=O)c(O)c2c1O[C@@]1(C)[C@@H](C2)C[C@H]2C[C@@H]1C2(C)C`, for which the AC50 was 6.32 µM.

As for `COc1nc(N2CCCCCC2)nc(N2CCCCCC2)n1`, the AC50 is 7.43 µM.

For `O=[N+]([O-])c1ccc(O)c(-c2nc(-c3ccccc3)c(-c3cccs3)[nH]2)c1`, the AC50 is 1.69 µM.

Consider `Cc1nn(-c2ccccc2)c(C)c1/C=N/NC(=O)c1cc(-c2ccc(Br)s2)[nH]n1`, for which the AC50 is 4.72 µM.

Turning to `COc1ccc(Br)cc1C(=O)Nc1cccc(C)c1`, the AC50 is > 19.5 µM (inactive).

Turning to `CC(Nc1nc(-c2ccc(Cl)cc2)cs1)c1nc2cc(Cl)c(N3CCCCC3)cc2n1CCOCCO` (stereo not given), the concentration at half-maximal activity (AC50) is 1.97 µM.

As for `CCCC(=O)NC(c1ccc2c(c1)OCO2)c1cc(Cl)c2cccnc2c1O` (stereo not given), the AC50 is 3.1 µM.

On to `CC(C)N1C(=O)/C(=C\c2nc3ccccc3c(=O)n2-c2ccccc2)c2ccccc21`, for which the AC50 is 9.85 µM.

For the compound `CCCCC[C@@H]1C=C(C(=O)O)[C@H](c2ccc(Cl)c(Cl)c2)N1S(=O)(=O)c1ccc(C)cc1`, the AC50 was 5.05 µM.

Turning to `COc1ccc(NS(=O)(=O)c2ccc(O)c(NC(=O)c3cc4c(C)nn(-c5ccc(F)cc5)c4s3)c2)cc1`, the AC50 is 2.49 µM.

On to `O=c1cc(N2CCCCC2)c(-c2ccccc2)nn1Cc1ccc(Cl)cc1Cl`, for which the concentration at half-maximal activity (AC50) is 3.96 µM.

On to `COc1cc2sc(-c3ccccc3OC)c(-c3ccc(O)cc3)c2cc1OC`, for which the AC50 was 5.22 µM.

On to `O=C(Nc1cccc(-c2csc(Nc3ccc(Cl)cc3)n2)c1)c1cc([N+](=O)[O-])cc(C(F)(F)F)c1`, for which the concentration at half-maximal activity (AC50) was 6.88 µM.

As to `Cc1ccc(COc2ccccc2-c2cc(C(=O)N/N=C/c3cccnc3)[nH]n2)cc1`, the AC50 is 12.6 µM.

With `Cc1nc2ccccc2n1/N=C/c1ccc([N+](=O)[O-])o1`, the AC50 is 13.9 µM.

For the compound `CC(C)(C)c1cc(Cl)ccc1OCCOCCN1CCCC1`, the concentration at half-maximal activity (AC50) was 6.54 µM.

In the case of `CCOC(=O)c1c(CSc2ccccc2)n(C)c2cc(Br)c(OCC(O)CNC(CO)(CO)CO)cc12` (stereo not given), the AC50 is 1.84 µM.

Take `CCCc1ccc(-c2cc(NC(=O)CSc3n[nH]c(N)n3)n(-c3ccccc3)n2)cc1`: the AC50 was 6.1 µM.

As for `N#C/C(=C\c1c(F)cccc1Cl)c1nn(-c2ccccc2)c(-n2cccc2)c1C#N`, the AC50 is 1.71 µM.

In the case of `c1ccc(-c2c3ccccc3nc3[nH]c4ccccc4c23)cc1`, the AC50 is 2.95 µM.

`C[C@@]12CCC=C[C@H]1[C@H](c1ccc(F)c(/C=C/c3ccccc3)c1)N(Cc1ccccc1)C2=O`: the AC50 is 7.18 µM.

`CC1CC1C(=O)N1CCN(S(=O)(=O)c2cc(C(F)(F)F)cc(C(F)(F)F)c2)CC1` (stereo not given): the AC50 is 6.27 µM.

`O=C(N/N=C/c1ccc(OC2CSC2)cc1)c1ccccc1`: the AC50 was 2.85 µM.

For the compound `CCN1CCN(c2cc(-c3ccccc3)nc3cc(-c4cccc(F)c4)nn23)CC1`, the half-maximal activity concentration (AC50) was 5.65 µM.

As to `COc1cccc(-c2sc3ccc(OC)cc3c2C#CCCO)c1`, the concentration at half-maximal activity (AC50) was 8.26 µM.

`CCCN1CCc2c(sc(NC(=O)c3ccc(S(=O)(=O)N(C)c4ccccc4)cc3)c2C(=O)NC)C1`: the half-maximal activity concentration (AC50) is 5.34 µM.

Turning to `CCc1ccc2oc(C(=O)NCC(c3ccc(OC)cc3)N3CCCCC3)c(C)c2c1` (stereo not given), the AC50 was 6.09 µM.

As for `CCN1CCN(c2cc(C(C)(C)C)nc3c(-c4ccccc4)c(C)nn23)CC1`, the AC50 was 6.81 µM.

Take `CC1(O)CC(c2ccc(Cl)cc2)=NN1C(=O)c1ccc([N+](=O)[O-])cc1` (stereo not given): the AC50 is 6.72 µM.

`Fc1ccc(C(OCCN2CCN(CCCc3ccccc3)CC2)c2ccc(F)cc2)cc1`: the AC50 was 3.12 µM.

With `COc1ccccc1-c1cn[nH]c1-c1ccc(OCc2ccccc2F)cc1O`, the concentration at half-maximal activity (AC50) is 6.88 µM.

For `CCn1cc(C(=O)N[C@H](C)c2ccccc2)c(=O)c2cc(F)c(N3CCN(C)CC3)cc21`, the half-maximal activity concentration (AC50) was 3.5 µM.

With `CC(=O)Nc1ccc(SC[C@H](C)CN2CC[C@H](C(C)(C)C)CCC2=O)cc1`, the AC50 is 4.98 µM.

In the case of `O=C(Nc1ccc(Cl)c(Cl)c1)O/N=C/c1ccncc1`, the concentration at half-maximal activity (AC50) was 10.1 µM.

`O=c1c2ccccc2oc2ccc(C#CC3(O)CCCCC3)cc12`: the AC50 was 7.11 µM.

With `C=C(C)COc1ccc(-c2[nH]ncc2-c2ccc(OC)cc2)c(O)c1`, the AC50 was 8.86 µM.

As to `COc1ccc2nc(NC(=O)c3ccc([N+](=O)[O-])o3)sc2c1`, the concentration at half-maximal activity (AC50) was 3.77 µM.

Consider `O=C(CC1Nc2ccccc2NC1=O)Nc1ccccc1` (stereo not given), for which the half-maximal activity concentration (AC50) was 1.04 µM.

`COc1cc(OC)c(C=O)c(OC(=O)N2CCOCC2)c1`: the AC50 is > 19.5 µM (inactive).

In the case of `COc1cc(OC)cc(-c2sc3ccc(OC)cc3c2C#CCO)c1`, the concentration at half-maximal activity (AC50) was 6.89 µM.

For the compound `COc1ccc(NS(=O)(=O)c2cc(-c3cnc(C4CC4)o3)ccc2C)cc1`, the concentration at half-maximal activity (AC50) was 0.968 µM.

Take `Cc1ccccc1N=C(NOCc1ccc(Cl)cc1Cl)c1nonc1N`: the concentration at half-maximal activity (AC50) was 3.81 µM.

As to `O=C(Nc1ccc(N2CCN(Cc3ccccc3F)CC2)cc1)c1ccc([N+](=O)[O-])o1`, the AC50 was 1.94 µM.

With `FC(F)(F)c1cc(CCN2CCNC[C@@H]2Cc2ccccc2)cc(C(F)(F)F)c1`, the half-maximal activity concentration (AC50) was 13.7 µM.

With `CC1=NN(c2nc(-c3ccc(Cl)cc3)cs2)C(=O)C1`, the AC50 was 12.3 µM.

With `C/C(=N\Nc1cc(C(F)(F)F)ccc1Cl)c1ccccc1O`, the AC50 was 19.9 µM.
